In ChEMBL document CHEMBL3616404, “Expanding the chemical space of human serine racemase inhibitors” (Bioorg Med Chem Lett, 2015):

Assays:
[1] = target: T1, Serine racemase (Homo sapiens) (UniProt Q9GZT4); assay: Inhibition of hexa-His-tagged purified human recombinant serine racemase expressed in Escherichia coli BL21 Codonplus (DE3)-RIL cells assessed as reduction in beta-elimination of L-serine at 5 mM by spectrophotomtery
T1 sequence (whole entry): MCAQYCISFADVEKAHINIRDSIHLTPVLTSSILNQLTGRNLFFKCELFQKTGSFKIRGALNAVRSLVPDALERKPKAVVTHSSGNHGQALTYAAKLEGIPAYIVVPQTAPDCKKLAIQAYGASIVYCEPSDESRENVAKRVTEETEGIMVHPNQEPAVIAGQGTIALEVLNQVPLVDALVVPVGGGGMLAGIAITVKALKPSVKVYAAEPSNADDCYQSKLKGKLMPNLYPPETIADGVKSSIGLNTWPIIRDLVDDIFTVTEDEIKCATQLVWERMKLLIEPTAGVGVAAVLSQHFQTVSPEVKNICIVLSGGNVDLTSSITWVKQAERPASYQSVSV

Serine racemase [2] = target: T2, Serine racemase (Homo sapiens, UniProt Q9GZT4); assay: Inhibition of hexa-His-tagged purified human recombinant serine racemase expressed in Escherichia coli BL21 Codonplus (DE3)-RIL cells assessed as reduction in beta-elimination of L-serine at by spectrophotomtery
T2 sequence (Q9GZT4 whole entry): T1 sequence (whole entry)

Serine racemase [3] = target: T2, Serine racemase; assay: Inhibition of human recombinant serine racemase expressed in Escherichia coli Rosetta 2 (DE3) cells using L-serine as substrate by horseradish peroxidase based couple assay
[4] = target: T1, Serine racemase (Homo sapiens); conditions: 330 uM
Description: Inhibition of hexa-His-tagged purified human recombinant serine racemase expressed in Escherichia coli BL21 Codonplus (DE3)-RIL cells assessed as reduction in beta-elimination of L-serine at 330 uM by spectrophotomtery

[5] = target: T1, Serine racemase (Homo sapiens); assay: Inhibition of hexa-His-tagged purified human recombinant serine racemase expressed in Escherichia coli BL21 Codonplus (DE3)-RIL cells assessed as reduction in beta-elimination of L-serine at 2.8 mM by spectrophotomtery

Question: How did the inhibition [1] turn out when `O=C(O)CC1(C(=O)O)CN2CCC1CC2` (stereo unspecified) was run?
Answer: 2%

Question: What about the Ki (Serine racemase [2]) of the same compound?
Answer: > 10 mM

Question: Which results are given for `O=C(O)CC(=O)O` [MALONIC ACID]?
Answer: Ki (Serine racemase [3]): 59 µM; inhibition [4]: 76%; Ki (Serine racemase [2]): 0.066 mM

Question: With `O=C(O)NCS(=O)(=O)c1cccs1` as the compound, how does the inhibition [1] read?
Answer: 70%

Question: What about the Ki (Serine racemase [2]) of the same compound?
Answer: 1.5 mM

Question: For `O=C(O)COCC(=O)Cc1cc(SCCO)cc([N+](=O)[O-])c1`, which inhibition [5] is on record?
Answer: 29%

Question: What about the Ki (Serine racemase [2]) of the same compound?
Answer: 4.5 mM

Question: For `O=C(O)CC(CC(=O)O)C(=O)O` [TRICARBALLYLIC ACID], which inhibition [5] is on record?
Answer: 59%

Question: What about the Ki (Serine racemase [2]) of the same compound?
Answer: 1.3 mM

Question: `O=[N+]([O-])c1cccnc1SCC(O)CO` (stereo unspecified) was tested. Which inhibition [5] did it give?
Answer: 0%

Question: For `CN1C(=O)C(=CNC(CC(=O)O)C(=O)O)C(=O)N(C)C1=O` (stereo unspecified), which inhibition [1] is on record?
Answer: 66%

Question: And the Ki (Serine racemase [2])?
Answer: 1.7 mM

Question: For `CC[C@H](NS(=O)(=O)c1ccc([N+](=O)[O-])cc1)C(=O)O`, which inhibition [1] is on record?
Answer: 70%

Question: What about the Ki (Serine racemase [2]) of the same compound?
Answer: 1.5 mM
